The text below walks through data of patent US5965622A, “Desformoterol and process for its preparation” (Sepracor Inc., priority 1998, dated 1999).

Entries after “also recorded” stand apart in the source; their conditions may differ. Where two headings read alike, the source gives them in different places.

In data set [1] the target is human β1-adrenergic receptor (Homo sapiens, UniProt P08588). The experiment in a line: binding to human β1-adrenergic receptor (competition curves). How it is done:
(§1) The four isomers of desformoterol, (R,R)-, (S,S)-, (R,S)-, and (S,R)-, and a 1:1 mixture of the (R,R)- and the (S,S)-enantiomers, were screened, in duplicate, at three concentrations (10^-9, 10^-7, 10^-5 M) for binding to human β1 and β2 -adrenergetic receptors. The compounds were then tested at ten concentrations in duplicate in order to obtain full competition curves. Reference compounds were simultaneously tested at eight concentrations.

In data set [2] the target is human β2-adrenergic receptor (Homo sapiens, UniProt P07550). Put plainly: binding to human β2-adrenergic receptor (competition curves). The settings on record: for adrenergic receptor agonist selectivity, in words: binding studies. How it is done:
as §1

A short description of data set [3]: stability of desformoterol according to conditions. The settings on record: pH of the environment. The format is physicochemical. An excerpt: It has been observed that the stability of desformoterol can vary according to conditions.
The conditions of data set [4]: when inhaled; background statement; cited from earlier work.
[5] abbreviates: human β2-adrenergic receptor, ten concentrations in duplicate (reference compounds eight), read-out: IC50 β2.
Where [6] appears, read: human β1-adrenergic receptor, ten concentrations in duplicate (reference compounds eight), read-out: IC50 β1.

Sequence of human β2-adrenergic receptor (P07550 whole entry): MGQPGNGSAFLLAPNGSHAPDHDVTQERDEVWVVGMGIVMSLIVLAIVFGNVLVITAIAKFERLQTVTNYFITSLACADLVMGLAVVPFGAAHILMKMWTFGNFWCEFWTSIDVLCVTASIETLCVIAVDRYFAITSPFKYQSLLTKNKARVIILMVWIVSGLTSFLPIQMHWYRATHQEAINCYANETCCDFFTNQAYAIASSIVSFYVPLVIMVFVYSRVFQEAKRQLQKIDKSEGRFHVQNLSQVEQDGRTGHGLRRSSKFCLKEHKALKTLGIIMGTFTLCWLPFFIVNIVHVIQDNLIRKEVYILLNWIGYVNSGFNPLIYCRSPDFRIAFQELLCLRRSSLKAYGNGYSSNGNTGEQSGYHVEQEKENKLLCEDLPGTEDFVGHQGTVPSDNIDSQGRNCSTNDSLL
Sequence of human β1-adrenergic receptor (P08588 whole entry): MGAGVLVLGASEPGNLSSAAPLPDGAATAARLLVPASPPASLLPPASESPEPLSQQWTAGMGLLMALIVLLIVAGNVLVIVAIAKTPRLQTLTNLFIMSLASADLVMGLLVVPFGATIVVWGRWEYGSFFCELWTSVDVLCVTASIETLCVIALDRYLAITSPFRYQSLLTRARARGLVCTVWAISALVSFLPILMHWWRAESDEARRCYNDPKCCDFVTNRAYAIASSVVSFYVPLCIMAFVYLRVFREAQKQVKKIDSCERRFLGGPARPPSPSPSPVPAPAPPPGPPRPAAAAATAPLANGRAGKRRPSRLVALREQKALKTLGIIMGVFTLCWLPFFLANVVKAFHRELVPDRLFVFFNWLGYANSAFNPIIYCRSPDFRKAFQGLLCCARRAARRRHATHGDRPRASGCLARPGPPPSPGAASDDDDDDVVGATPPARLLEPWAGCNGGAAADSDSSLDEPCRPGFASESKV

Regarding `COc1ccc(C[C@@H](C)NC[C@@H](O)c2ccc(O)c(N)c2)cc1` [(S,R)-Desformoterol], in data set [1] (at 10^-5 M), at 10 µM the inhibition was 22%. In addition, the “binding/affinity at β1 site, in words” value in data set [1] (human β1-adrenergic receptor) is listed as “Neither (R,S)- nor (S,R)-desformoterol showed high affinity for the β1 receptor”. Moreover, the IC50 in data set [2] (setting [5]) amounted to 1.89 µM.

`COc1ccc(CC(C)NCC(O)c2ccc(O)c(N)c2)cc1` (stereo not drawn) [desformoterol, 3-Amino-4-hydroxy-α-[[[2-(4-methoxyphenyl)-1-methylethyl]amino]methyl]-benzenemethanol]: the “adrenergic receptor agonist selectivity, in words” value in data set [2] is given as “highly selective β2 -adrenergic receptor agonist”. Besides, the “pH of maximum stability” value in data set [3] was 2.

For the compound `COc1ccc(C[C@H](C)NC[C@H](O)c2ccc(O)c(N)c2)cc1` [(R,S)-Desformoterol], the “binding/affinity at β1 site, in words” value in data set [1] (human β1-adrenergic receptor) is “Neither (R,S)- nor (S,R)-desformoterol showed high affinity for the β1 receptor; also recorded: comparable to that of atenolol at the β1 -site”. In addition, the half-inhibitory concentration (IC50) in data set [1] (setting [6]) amounted to 1.79 µM; in data set [2] (setting [5]), 3.14 µM. The “β1/β2 Selectivity” value in data set [2] (ratio of IC50 values β1/β2) was less than 1.

For the compound `COc1ccc(C[C@@H](C)NC[C@H](O)c2ccc(O)c(N)c2)cc1` [(R,R)-Desformoterol, (R,R)-3-amino-4-hydroxy-α-[[[2-(4-methoxyphenyl)-1-methylethyl]amino]methyl]-benzenemethanol], the IC50 in data set [1] was found to be 3.18 µM. In data set [2], the IC50 was found to be 0.0356 µM and the “adrenergic receptor agonist selectivity, in words” value is listed as “highly selective β-adrenergic receptor agonists”. Also, the “binding/affinity at β2 site, in words” value in data set [2] (human β2-adrenergic receptor) is “significant binding primarily at the β2 -site”. Further, in data set [2] (ratio of IC50 values β1/β2), the “selectivity (β1/β2) for the β2-receptor” value is “approximately 89 fold” and the “β1/β2 Selectivity” value worked out at 89.

Regarding `COc1ccc(C[C@@H](C)NC[C@H](O)c2ccc(O)c(N)c2)cc1` (relative stereo) [(R,R)-/(S,S)-Racemate of Desformoterol], the IC50 in data set [1] (setting [6]) worked out at 5.14 µM; in data set [2] (setting [5]) it was 0.0813 µM. In addition, the “adrenergic receptor agonist selectivity, in words” value in data set [2] is on record as “highly selective β-adrenergic receptor agonists”. Also, the “binding/affinity at β2 site, in words” value in data set [2] (human β2-adrenergic receptor) is “significant binding only at the β2 -site”. Moreover, the “β1/β2 Selectivity” value in data set [2] (ratio of IC50 values β1/β2) was found to be 63.

`COc1ccc(C[C@@H](C)NC[C@H](O)c2ccc(O)c(NC=O)c2)cc1` (relative stereo) [Formoterol]: in data set [4], the “bronchodilating effect, in words” value is “long lasting bronchodilating effect”.

For `COc1ccc(C[C@H](C)NC[C@@H](O)c2ccc(O)c(N)c2)cc1` [(S,S)-Desformoterol], the IC50 was 64.7 µM in data set [1] and more than 10 µM in data set [2]. In data set [1] (human β1-adrenergic receptor), the “binding/affinity at β1 site, in words” value is “lacked affinity for both β-adrenergic sites”. The “binding/affinity at β2 site, in words” value in data set [2] (human β2-adrenergic receptor) is given as “lacked affinity for both β-adrenergic sites”. Besides, in data set [2] (ratio of IC50 values β1/β2), the “β1/β2 Selectivity” value was less than 6.

In general, inhibition refers to the percentage by which the read-out fell short of the control. A higher inhibition goes with a strong effect. The IC50 is the concentration that gives 50% inhibition.
